The record followed here is patent US8088936B2, “Leukotriene B4 inhibitors” (Hoffman-La Roche Inc., priority 2009, dated 2012).

This experiment has as its system Human leukemia HL-60 cells endogenously expressing BLT1 and BLT2 receptors. The experiment is described as follows: Ca2+ flux assay for LTB4 antagonist assay (HL-60 FLIPR). Format: cell-based. The conditions noted are these: retinoic acid induced HL-60 cells, inhibition of LTB4-induced Ca2+ flux, 30 min preincubation; read-out: LTB4 antagonism (HL-60 FLIPR). How it is done: Assay of Compounds for Inhibition of LTB4 Activity
Ca^2+Flux Assay for LTB4 Antagonist Assay
Human leukemia HL-60 cells endogenously expressing BLT1 and BLT2 receptors were cultured in RPMI-1640 medium supplemented with 20% fetal bovine serum, 2 mM glutamine, 100 U/ml penicillin and 100 ug/ml streptomycin.
Seventy two hours prior to experiment cells are counted using ViaCount reagent, centrifuged and resuspended at 2.0×10^5 cells/ml density with the complete growth media containing 1 μM Retinoic Acid (Sigma).
On a day of the experiment loading buffer (Calcium-3 Assay Kit, Molecular Devices) was prepared by dissolving the contents of one vial (Express Kit) into 500 ml Hank's Balanced Salt Solution containing 20 mM HEPES and 5 mM probenecid. Equal volume of the loading buffer was mixed with the replacement buffer (Hank's Balanced Salt Solution containing 20 mM HEPES, 0.05% BSA and 5 mM probenecid). Retinoic Acid induced HL-60 cells were counted using ViaCount reagent, centrifuged and resuspended at 2.0×10^6 cells/ml density with the loading buffer/replacement buffer, dispensed into 384 well black/clear microplates (Falcon) (25 μl/well) and placed in a 37° C./5% CO2 incubator for 1 hour.
During the incubation, test compounds were prepared at 6× the desired concentration in HBSS/20 mM HEPES/0.05% BSA as well as LTB4 (Biomol) was prepared at 2.2× concentration in HBSS/20 mM HEPES/0.5% BSA buffer.
After the incubation, both the cell and compound plates were brought to the FLIPR and 5 μl of the diluted compounds were transferred to the cell plates by the FLIPR. Plates were then incubated for 30 min at room temperature. After the ½ hour incubation, plates were returned to the FLIPR and 25 μl of 2.2×LTB4 was added to the cell plates. During the assay, fluorescence readings were taken simultaneously from all 384 wells of the cell plate every 1.5 seconds. Five readings were taken to establish a stable baseline, then 25 μl (LTB4) of sample was rapidly and simultaneously added to each well of the cell plate. The fluorescence was continuously monitored before, during and after sample addition for a total elapsed time of 100 seconds. Responses (increase in peak fluorescence) in each well following agonist addition was determined. The initial fluorescence reading from each well, prior to ligand stimulation, was used a zero baseline value for the data from that well. The responses are expressed as % inhibition of the neutral control (neural control: wells that received buffer plus DMSO but no test compound).

For the molecule `CCOc1cc(OCCCCCCc2cccc(OCCCC(=O)O)c2CCC(=O)O)cc(-c2cccc(F)c2)c1` [Example 47, 4-[2-(2-Carboxy-ethyl)-3-[6-(5-ethoxy-3′-fluoro-biphenyl-3-yloxy)-hexyl]-phenoxy]-butyric acid], the IC50 turned out to be 2.32 nM.
In the case of `CCOc1cc(OCCCCCCc2cccc(OCCCC(=O)O)c2CCC(=O)O)cc(-c2ccc(F)cc2)c1` [Example 48], the IC50 was found to be 5.2 nM.
For `CCOc1cc(OCCCCCCc2cccc(OCCCC(=O)O)c2CCC(=O)O)cc(-c2ccc(Cl)cc2)c1` [Example 49, 4-[2-(2-Carboxy-ethyl)-3-[6-(4′-chloro-5-ethoxy-biphenyl-3-yloxy)-hexyl]-phenoxy]-butyric acid], the IC50 came out at 6.05 nM.
The same measure for `CCOc1cc(OCCCCCCc2cccc(OCCCC(=O)O)c2CCC(=O)O)cc(-c2ccc(F)c(F)c2)c1` [Example 50, 4-[2-(2-Carboxy-ethyl)-3-[6-(3′,4′-difluoro-5-ethoxy-biphenyl-3-yloxy)-hexyl]-phenoxy]-butyric acid]: 8.27 nM.
For the molecule `CCOc1cc(OCCCCCCc2cccc(OCCCC(=O)O)c2CCC(=O)O)cc(-c2ccc(S(C)(=O)=O)cc2)c1` [Example 51, 4-[2-(2-Carboxy-ethyl)-3-[6-(5-ethoxy-4′-methanesulfonyl-biphenyl-3-yloxy)-hexyl]-phenoxy]-butyric acid], the IC50 was determined as 2.1 nM.
In the case of `CCOc1cc(OCCCCCCc2cccc(OCCCC(=O)O)c2CCC(=O)O)cc(-c2ccnc(Cl)c2)c1` [Example 52, 4-[2-(2-Carboxy-ethyl)-3-[6-[3-(2-chloro-pyridin-4-yl)-5-ethoxy-phenoxy]-hexyl]-phenoxy]-butyric acid], the IC50 is 6.94 nM.
As for `CCOc1cc(OCCCCCCc2cccc(OCCCC(=O)O)c2CCC(=O)O)cc(-c2cncnc2)c1` [Example 53, 4-[2-(2-Carboxy-ethyl)-3-[6-(3-ethoxy-5-pyrimidin-5-yl-phenoxy)-hexyl]-phenoxy]-butyric acid], the IC50 was 79.3 nM.
Turning to `CCOc1cc(OCCCCCCc2cccc(OCCCC(=O)O)c2CCC(=O)O)cc(-c2ccc3[nH]ccc3c2)c1` [Example 54, 4-[2-(2-Carboxy-ethyl)-3-{6-[3-ethoxy-5-(1H-indol-5-yl)-phenoxy]-hexyl}-phenoxy]-butyric acid], the IC50 was found to be 34.2 nM.
For the molecule `CCOc1cc(OCCCCCCc2cccc(OCCCC(=O)O)c2CCC(=O)O)cc(-c2ccc3cc[nH]c3c2)c1` [Example 55, 4-[2-(2-Carboxy-ethyl)-3-{6-[3-ethoxy-5-(1H-indol-6-yl)-phenoxy]-hexyl}-phenoxy]-butyric acid], the IC50 was found to be 6.69 nM.
On to `CCOc1cc(OCCCCCCc2cccc(OCCCC(=O)O)c2CCC(=O)O)cc(-c2ccc3scnc3c2)c1` [Example 56, 4-[3-{6-[3-Benzothiazol-5-yl-5-ethoxy-phenoxy]-hexyl}-2-(2-carboxy-ethyl)-phenoxy]-butyric acid], for which the IC50 was found to be 0.32 nM.
As for `CCOc1cc(OCCCCCCc2cccc(OCCCC(=O)O)c2CCC(=O)O)cc(-c2ccc3c(c2)OC(F)(F)O3)c1` [Example 57, 4-(2-(2-Carboxy-ethyl)-3-{6-[3-(2,2-difluoro-benzo[1,3]dioxol-5-yl)-5-ethoxy-phenoxy]-hexyl}-phenoxy)-butyric acid], the figure is 1.2 nM; as for `O=C(O)CCCOc1cccc(CCCCCCOc2cc(OCc3ccccc3)cc(-c3ccccc3)c2)c1CCC(=O)O` [Example 58, 4-[3-[6-(5-Benzyloxy-biphenyl-3-yloxy)-hexyl]-2-(2-carboxy-ethyl)-phenoxy]-butyric acid], 74.6 nM; as for `O=C(O)CCCOc1cccc(CCCCCCOc2cc(OCc3ccccc3)cc(-c3cccc(F)c3)c2)c1CCC(=O)O` [Example 59, 4-[3-[6-(5-Benzyloxy-3′-fluoro-biphenyl-3-yloxy)-hexyl]-2-(2-carboxy-ethyl)-phenoxy]-butyric acid], 132 nM.
On to `O=C(O)CCCOc1cccc(CCCCCCOc2cc(OCc3ccccc3)cc(-c3ccc4c(c3)OCO4)c2)c1CCC(=O)O` [Example 60, 4-[3-[6-(3-Benzo[1,3]dioxol-5-yl-5-benzyloxy-phenoxy)-hexyl]-2-(2-carboxy-ethyl)-phenoxy]-butyric acid], for which the IC50 is 4.59 nM.
For `O=C(O)CCCOc1cccc(CCCCCCOc2cc(OCc3ccccc3)cc(-c3ccsc3)c2)c1CCC(=O)O` [Example 61, 4-[3-[6-(3-Benzyloxy-5-thiophen-3-yl-phenoxy)-hexyl]-2-(2-carboxy-ethyl)-phenoxy]-butyric acid], the IC50 came to 77.7 nM.
Consider `O=C(O)CCCOc1cccc(CCCCCCOc2cc(OCC3CCCC3)cc(-c3ccsc3)c2)c1CCC(=O)O` [Example 62, 4-[2-(2-Carboxy-ethyl)-3-[6-(3-cyclopentylmethoxy-5-thiophen-3-yl-phenoxy)-hexyl]-phenoxy]-butyric acid], for which the IC50 was 7.98 nM.
Turning to `O=C(O)CCCOc1cccc(CCCCCCOc2cc(OCC3CCCC3)cc(-c3cccc(F)c3)c2)c1CCC(=O)O` [Example 63, 4-[2-(2-Carboxy-ethyl)-3-[6-(5-cyclopentylmethoxy-3′-fluoro-biphenyl-3-yloxy)-hexyl]-phenoxy]-butyric acid], the IC50 amounted to 32.5 nM.
On to `CC(=O)c1cc(OCCCCCCc2cccc(OCCCC(=O)O)c2CCC(=O)O)cc(-c2ccc3c(c2)OCO3)c1` [Example 64, 4-[3-[6-(3-Acetyl-5-benzo[1,3]dioxol-5-yl-phenoxy)-hexyl]-2-(2-carboxy-ethyl)-phenoxy]-butyric acid], for which the IC50 is 2.95 nM.
The same measure for `CC(=O)c1cc(OCCCCCCc2cccc(OCCCC(=O)O)c2CCC(=O)O)cc(-c2ccc3c(c2)OCCO3)c1` [Example 65]: 2.07 nM.
Consider `CC(=O)c1cc(OCCCCCCc2cccc(OCCCC(=O)O)c2CCC(=O)O)cc(-c2ccccc2)c1` [Example 66, 4-[3-[6-(5-Acetyl-biphenyl-3-yloxy)-hexyl]-2-(2-carboxy-ethyl)-phenoxy]-butyric acid], for which the IC50 is 3.33 nM.
Regarding `CC(=O)c1cc(OCCCCCCc2cccc(OCCCC(=O)O)c2CCC(=O)O)cc(-c2cccc(F)c2)c1` [Example 67, 4-[3-[6-(5-Acetyl-3′-fluoro-biphenyl-3-yloxy)-hexyl]-2-(2-carboxy-ethyl)-phenoxy]-butyric acid], the IC50 was found to be 5.1 nM.
`CC(=O)c1cc(OCCCCCCc2cccc(OCCCC(=O)O)c2CCC(=O)O)cc(-c2ccsc2)c1` [Example 68, 4-[3-[6-(3-Acetyl-5-thiophen-3-yl-phenoxy)-hexyl]-2-(2-carboxy-ethyl)-phenoxy]-butyric acid]: the IC50 was 2 nM.
Consider `CC(=O)c1cc(OCCCCCCc2cccc(OCCCC(=O)O)c2CCC(=O)O)cc(-c2ccc3c(c2)OC(F)(F)O3)c1` [Example 69, 4-[3-{6-[3-Acetyl-5-(2,2-difluoro-benzo[1,3]dioxol-5-yl)-phenoxy]-hexyl}-2-(2-carboxy-ethyl)-phenoxy]-butyric acid], for which the IC50 was 0.9 nM.
Take `CC(C)C(=O)c1cc(OCCCCCCc2cccc(OCCCC(=O)O)c2CCC(=O)O)cc(-c2ccc3c(c2)OCO3)c1` [Example 70, 4-[3-[6-(3-Benzo[1,3]dioxol-5-yl-5-isobutyryl-phenoxy)-hexyl]-2-(2-carboxy-ethyl)-phenoxy]-butyric acid]: the IC50 worked out at 0.31 nM.
The same measure for `CCC(=O)c1cc(OCCCCCCc2cccc(OCCCC(=O)O)c2CCC(=O)O)cc(-c2ccc3c(c2)OCO3)c1` [Example 71, 4-[3-[6-(3-Benzo[1,3]dioxol-5-yl-5-propionyl-phenoxy)-hexyl]-2-(2-carboxy-ethyl)-phenoxy]-butyric acid]: 0.4 nM.
For the molecule `O=C(O)CCCOc1cccc(CCCCCCOc2cc(C(=O)C3CC3)cc(-c3ccc4c(c3)OCO4)c2)c1CCC(=O)O` [Example 72, 4-[3-[6-(3-Benzo[1,3]dioxol-5-yl-5-cyclopropanecarbonyl-phenoxy)-hexyl]-2-(2-carboxy-ethyl)-phenoxy]-butyric acid], the IC50 stood at 0.16 nM.
The same measure for `O=C(O)CCCOc1cccc(CCCCCCOc2cc(C(=O)C3CCCC3)cc(-c3ccc4c(c3)OCO4)c2)c1CCC(=O)O` [Example 73, 4-[3-[6-(3-Benzo[1,3]dioxol-5-yl-5-cyclopentanecarbonyl-phenoxy)-hexyl]-2-(2-carboxy-ethyl)-phenoxy]-butyric acid]: 0.77 nM.
